We go through 3 molecules from patent publication EP1644371B1, “PYRAZOLOISOQUINOLINE DERIVATIVES AS KINASE INHIBITORS” (Aventis Pharmaceuticals Inc., priority 2003, dated 2005).

SMILES strings stand for the structures. pIC50: −log10 of the molar value. Read-outs that look alike come from different tables or passages of the source.

What all share (type): cell-based
Data set [1] deals with human peripheral blood lymphocytes. Nature of the data set: Cytotoxicity by LDH release. On the procedure: (§1) The pyrazoloisoquinoline derivatives according to the invention were tested for inhibitory activity against NIK in various in vitro assay systems. In this connection, human peripheral blood lymphocytes were preincubated for 1 h with different concentrations of the compounds and then stimulated for 24 h with LPS or IL1 β. After that, a commercially obtainable ELISA test kit was used to measure the release of TNFα in the culture supernatant, and the IC50 for the given compound was determined. The cytotoxicity was measured by way of LDH release using a commercially obtainable test kit and the LD50 for the given compound was determined.
Background: Release of lactate dehydrogenase indicates damage to the cell membrane.

Data set [2] deals with LPS-stimulated human peripheral blood lymphocytes. Nature of the data set: Cytokine release in LPS-stimulated human peripheral blood lymphocytes (ELISA). The note with it: Lymphocyte. On the procedure:
as §1
Background: ELISA stands for enzyme-linked immunosorbent assay.

The subject of data set [3] is IL1 β-stimulated human peripheral blood lymphocytes. Nature of the data set: Cytokine release in IL1β-stimulated human peripheral blood lymphocytes (ELISA). Particulars: Lymphocyte. On the procedure: The pyrazoloisoquinoline derivatives according to the invention were tested for inhibitory activity against NIK in various in vitro assay systems. In this connection, human peripheral blood lymphocytes were preincubated for 1 h with different concentrations of the compounds and then stimulated for 24 h with LPS or IL1 β. […] The cytotoxicity was measured by way of LDH release using a commercially obtainable test kit and the LD50 for the given compound was determined.

The subject of data set [4] is LPS-stimulated heparinized whole human blood. Nature of the data set: Release of IL1β, TNFα and IL6 in LPS-stimulated heparinized whole human blood. The note with it: 24 h. As for the experimental part:
In another assay, heparinized whole human blood was preincubated for 1 h with different concentrations of the compounds and then stimulated with LPS for 24 h. Commercially available test kits were used to measure the release of IL1β, TNFα and IL6 in the supernatant after 24 h, and the IC50 for the given compound was determined.

Where [5] appears, read: IL1 β-stimulated human peripheral blood lymphocytes (Table 2).
[6] abbreviates: LPS-stimulated human peripheral blood lymphocytes (Table 1).
[7] abbreviates: 1 h preincubation, 24 h stimulation, read-out: TNFα release IC50.

Take `Cc1n[nH]c2c1nc(-c1cccc(O)c1)c1ccccc12` [Example 3, 3-(3-Methyl-1H-pyrazolo[4,3-c]isoquinolin-5-yl)phenol]: the “Cytotoxicity LD50” value in data set [1] (setting [5]) and in data set [1] (setting [6]) was greater than 100 µM each time. Further, the pIC50 is 5.12 in data set [2] (setting [7]); 4.10 in data set [2] (read-out: IL6 release IC50); 5.10 in data set [3] (setting [7]); less than 4.00 in data set [3] (read-out: IL6 release IC50); 4.54 in data set [4] (read-out: IL1β release IC50); less than 4.00 in data set [4] (read-out: IL6 release IC50). The negative-log IC50 (pIC50) in data set [4] (read-out: TNFα release IC50) is 5.30.

Consider `c1ccc(-c2nc3c(-c4ccccc4)n[nH]c3c3ccccc23)cc1` [Example 1, 3,5-Diphenyl-1H-pyrazolo[4,3-c]isoquinoline], for which the “Cytotoxicity LD50” value in data set [1] (setting [5]) and in data set [1] (setting [6]) was greater than 100 µM throughout. In addition, the pIC50 in data set [2] (setting [7]) is 5.72; in data set [2] (read-out: IL6 release IC50), 4.10; in data set [3] (setting [7]), 5.30; in data set [3] (read-out: IL6 release IC50), 4.10; in data set [4] (read-out: IL1β release IC50), 4.48; in data set [4] (read-out: IL6 release IC50), less than 4.00. Further, the pIC50 in data set [4] (read-out: TNFα release IC50) was 4.90.

In the case of `COc1cccc(-c2nc3c(C)n[nH]c3c3ccccc23)c1` [Example 2, 5-(3-Methoxyphenyl)-3-methyl-1H-pyrazolo[4,3-c]isoquinoline], the “Cytotoxicity LD50” value in data set [1] (setting [5]) and in data set [1] (setting [6]) was greater than 100 µM each time. Further, the negative-log IC50 (pIC50) in data set [2] (setting [7]) was 5.05; in data set [2] (read-out: IL6 release IC50) it was less than 4.00; in data set [3] (setting [7]), 4.46; in data set [3] (read-out: IL6 release IC50), less than 4.00; in data set [4] (read-out: IL1β release IC50) it was 5.89; in data set [4] (read-out: IL6 release IC50), 5.15. In data set [4] (read-out: TNFα release IC50), the negative logarithm of the IC50 (pIC50) is 5.92.

The pIC50 is the IC50 on a negative log10 scale, so that one unit is a factor of ten.
